Assay results: PMC11397024, “Strategic Fluorination to Achieve a Potent, Selective, Metabolically Stable, and Orally Bioavailable Inhibitor of CSNK2” (Molecules, 2024)

Tests used:
Assay in all cases: NanoBRET K192
Type in all cases: cell-based
[1] = target: T1, ABL2 (Homo sapiens, UniProt P42684); conditions: HEK293
T1 construct: purchased Promega (NanoBRET Target Engagement K192 Kinase Selectivity System)
Protocol: (§1) The K192 selectivity assay was run according to the Draft Promega technical manual, NanoBRET^TM Target Engagement K192 Kinase Selectivity System. Reagents were supplied by Promega (Promega NP 4101). For the assay, DNA from the prepared kinase vector panel plates A and B were mixed with Fugene in 96-well plates (Corning 3917) and incubated at room temperature for 30 min. The NanoLuc® Low control vector pNL1.1.CMV [Nluc/CMV] Vector (Cat.# N1091) and the transfection control vector NanoLuc®-HIPK2 Fusion Vector (Cat.# NV3221) were used as controls.
(§2) HEK293 cells were grown to 75–95% confluency in DMEM (Gibco 11995-065) supplemented with FBS (Avantor 97068-085) at 37 °C in […]. On the first day of the assay, cells were harvested and resuspended in Opti-MEM (Gibco 11058-021) supplemented with 1% FBS (Avantor 97068-085) at 2.5 × 10^5 cells per mL. A volume of 60 μL of cell suspension was mixed with 10 μL of prepared DNA (10X concentration) and 30 μL of Fugene (30 μL/mL in Opti-MEM) as outlined by Promega and incubated overnight at 37 °C in a 5% CO2 incubator.
(§3) On day two of the assay, 5 μL of 20X K10 tracer was prepared and added at concentrations recommended by Promega. Then, 10 μL of test compounds at 100 μM in Opti-MEM (diluted from a 10 mM solution in DMSO) was added to the test wells while an equivalent volume of Opti-MEM was added to the high-control wells. Plates were kept at 37 °C in a 5% CO2 incubator for two hours. After two hours, plates were allowed to equilibrate to room temperature for 15 min. A solution of 3X Complete Substrate plus Inhibitor Solution was freshly prepared, consisting of a 1:166 dilution of NanoBRET™ Nano-Glo® Substrate plus a 1:500 dilution of Extracellular NanoLuc® Inhibitor in Opti-MEM® medium without serum or phenol red. A 50 μL volume of the 3X Complete Substrate plus Inhibitor Solution was added to each assay well, including control wells. After 2–3 min, the plate was shaken at 300 RPM for 10 s, and the donor emission wavelength (450 nm) and acceptor emission wavelength (610 nm) were measured using the Glomax® Discover System.
(§4) As a quality check, the donor signal-to-background ratio was calculated for each individual kinase by dividing the mean donor signal for each kinase by the mean donor signal for the signal-to-background control wells. Fractional occupancy of the test drug for each kinase was determined using the following formula:Occupancy (%) = [1 − (Sample − Bottom)/(Top − Bottom)] × 100 where

[2] = target: T2, BMP2K (Homo sapiens, UniProt Q9NSY1); conditions: HEK293
T2 construct: purchased Promega (NanoBRET Target Engagement K192 Kinase Selectivity System)
Protocol: as §1, §2, §3, §4

[3] = target: T3, CDK16 + Y (Homo sapiens, UniProt Q00536); conditions: HEK293
T3 construct: purchased Promega (NanoBRET Target Engagement K192 Kinase Selectivity System)
Protocol: as §1, §2, §3, §4

[4] = target: T4, CDK18 + Y (Homo sapiens, UniProt Q07002); conditions: HEK293
T4 construct: purchased Promega (NanoBRET Target Engagement K192 Kinase Selectivity System)
Protocol: as §1, §2, §3, §4

[5] = target: T5, CDK20 + H (Homo sapiens, UniProt Q8IZL9); conditions: HEK293
T5 construct: purchased Promega (NanoBRET Target Engagement K192 Kinase Selectivity System)
T5 sequence (Q8IZL9 whole entry): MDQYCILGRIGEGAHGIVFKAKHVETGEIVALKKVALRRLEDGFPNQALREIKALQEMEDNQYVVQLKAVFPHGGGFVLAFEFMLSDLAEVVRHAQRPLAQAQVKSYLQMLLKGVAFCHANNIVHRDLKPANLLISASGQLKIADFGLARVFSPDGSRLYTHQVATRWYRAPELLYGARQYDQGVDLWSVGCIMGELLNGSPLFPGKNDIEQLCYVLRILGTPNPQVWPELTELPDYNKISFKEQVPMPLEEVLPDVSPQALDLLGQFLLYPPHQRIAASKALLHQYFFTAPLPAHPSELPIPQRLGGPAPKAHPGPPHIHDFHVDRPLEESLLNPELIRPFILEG
T5 sequence (P51946 whole entry partner): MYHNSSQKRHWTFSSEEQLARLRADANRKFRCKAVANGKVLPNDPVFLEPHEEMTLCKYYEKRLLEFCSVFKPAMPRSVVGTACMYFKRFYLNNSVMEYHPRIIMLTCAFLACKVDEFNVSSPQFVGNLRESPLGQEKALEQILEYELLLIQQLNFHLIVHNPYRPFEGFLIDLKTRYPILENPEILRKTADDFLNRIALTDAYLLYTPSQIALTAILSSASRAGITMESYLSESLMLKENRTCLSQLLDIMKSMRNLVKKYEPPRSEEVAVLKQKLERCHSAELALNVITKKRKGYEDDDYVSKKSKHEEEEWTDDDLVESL
Protocol: as §1, §2, §3, §4

[6] = target: T6, CLK1 (Homo sapiens, UniProt P49759)
T6 construct: purchased Promega (NanoBRET Target Engagement K192 Kinase Selectivity System)
T6 sequence (P49759 whole entry): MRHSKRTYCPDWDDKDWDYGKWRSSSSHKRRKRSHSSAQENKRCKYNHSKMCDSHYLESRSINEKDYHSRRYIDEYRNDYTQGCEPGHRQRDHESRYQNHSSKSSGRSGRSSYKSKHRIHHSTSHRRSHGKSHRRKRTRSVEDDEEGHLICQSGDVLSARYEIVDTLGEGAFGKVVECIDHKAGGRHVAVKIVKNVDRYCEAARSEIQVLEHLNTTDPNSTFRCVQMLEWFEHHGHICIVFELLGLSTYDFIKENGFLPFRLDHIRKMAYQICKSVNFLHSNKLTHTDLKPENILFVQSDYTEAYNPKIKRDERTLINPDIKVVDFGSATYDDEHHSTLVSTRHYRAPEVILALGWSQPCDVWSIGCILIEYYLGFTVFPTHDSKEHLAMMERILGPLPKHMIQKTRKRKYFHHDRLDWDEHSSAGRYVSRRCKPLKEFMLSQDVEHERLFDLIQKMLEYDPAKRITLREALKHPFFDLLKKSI
Protocol: as §1, §2, §3, §4

[7] = target: T7, CLK4 (Homo sapiens, UniProt Q9HAZ1)
T7 construct: expressed in transfected cells; host or cells: HEK293
T7 sequence (Q9HAZ1 whole entry): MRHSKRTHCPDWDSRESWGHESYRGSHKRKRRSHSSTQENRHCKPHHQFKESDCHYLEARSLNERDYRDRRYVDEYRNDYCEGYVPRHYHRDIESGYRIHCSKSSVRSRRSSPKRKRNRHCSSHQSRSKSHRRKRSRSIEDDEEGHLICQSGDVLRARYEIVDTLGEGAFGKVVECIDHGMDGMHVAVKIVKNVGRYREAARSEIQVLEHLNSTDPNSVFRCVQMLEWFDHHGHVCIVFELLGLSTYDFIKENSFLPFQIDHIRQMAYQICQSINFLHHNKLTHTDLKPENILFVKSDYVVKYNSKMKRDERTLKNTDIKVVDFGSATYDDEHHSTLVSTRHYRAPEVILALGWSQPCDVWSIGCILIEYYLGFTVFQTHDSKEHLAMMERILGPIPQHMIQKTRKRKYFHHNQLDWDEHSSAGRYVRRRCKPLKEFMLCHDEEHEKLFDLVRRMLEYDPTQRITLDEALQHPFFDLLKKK
Protocol: as §1, §2, §3, §4

[8] = target: T8, CSNK1D (Homo sapiens, UniProt P48730); conditions: HEK293
T8 construct: purchased Promega (NanoBRET Target Engagement K192 Kinase Selectivity System)
Protocol: as §1, §2, §3, §4

[9] = target: T9, DAPK2 (Homo sapiens, UniProt Q9UIK4)
T9 construct: expressed in transfected cells; host or cells: HEK293
T9 sequence (Q9UIK4 whole entry): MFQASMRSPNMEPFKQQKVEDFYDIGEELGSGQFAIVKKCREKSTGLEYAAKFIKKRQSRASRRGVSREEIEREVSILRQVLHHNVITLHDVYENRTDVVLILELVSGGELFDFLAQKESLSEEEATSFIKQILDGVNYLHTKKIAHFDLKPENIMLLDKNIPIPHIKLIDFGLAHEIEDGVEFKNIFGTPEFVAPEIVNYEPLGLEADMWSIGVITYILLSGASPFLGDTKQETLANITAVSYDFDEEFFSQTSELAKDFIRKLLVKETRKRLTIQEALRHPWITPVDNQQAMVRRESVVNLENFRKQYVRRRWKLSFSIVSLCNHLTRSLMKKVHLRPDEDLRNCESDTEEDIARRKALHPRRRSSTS
Protocol: as §1, §2, §3, §4

[10] = target: T10, DCLK3 (Homo sapiens, UniProt Q9C098); conditions: HEK293
T10 construct: purchased Promega (NanoBRET Target Engagement K192 Kinase Selectivity System)
T10 sequence (Q9C098 whole entry): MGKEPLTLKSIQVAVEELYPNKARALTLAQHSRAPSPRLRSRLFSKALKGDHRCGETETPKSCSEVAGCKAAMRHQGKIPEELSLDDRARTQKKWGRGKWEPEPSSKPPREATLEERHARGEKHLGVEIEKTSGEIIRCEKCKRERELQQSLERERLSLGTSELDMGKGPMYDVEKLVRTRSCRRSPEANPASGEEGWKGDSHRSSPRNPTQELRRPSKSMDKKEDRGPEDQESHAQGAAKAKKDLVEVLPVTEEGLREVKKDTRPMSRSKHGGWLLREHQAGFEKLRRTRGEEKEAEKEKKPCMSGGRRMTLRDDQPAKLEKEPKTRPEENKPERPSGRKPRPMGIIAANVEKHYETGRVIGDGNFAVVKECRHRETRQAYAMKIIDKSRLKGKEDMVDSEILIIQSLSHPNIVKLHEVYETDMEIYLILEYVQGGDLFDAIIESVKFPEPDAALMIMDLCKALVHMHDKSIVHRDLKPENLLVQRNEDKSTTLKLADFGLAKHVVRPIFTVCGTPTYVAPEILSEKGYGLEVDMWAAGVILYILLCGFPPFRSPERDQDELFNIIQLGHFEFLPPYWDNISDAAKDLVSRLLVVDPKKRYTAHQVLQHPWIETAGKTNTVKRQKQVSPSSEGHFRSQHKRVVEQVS
Protocol: as §1, §2, §3, §4

[11] = target: T11, EPHB1 (Homo sapiens, UniProt P54762); conditions: HEK293
T11 construct: purchased Promega (NanoBRET Target Engagement K192 Kinase Selectivity System)
Protocol: as §1, §2, §3, §4

[12] = target: T12, LCK (Homo sapiens, UniProt P06239); conditions: HEK293
T12 construct: purchased Promega (NanoBRET Target Engagement K192 Kinase Selectivity System)
T12 sequence (P06239 whole entry): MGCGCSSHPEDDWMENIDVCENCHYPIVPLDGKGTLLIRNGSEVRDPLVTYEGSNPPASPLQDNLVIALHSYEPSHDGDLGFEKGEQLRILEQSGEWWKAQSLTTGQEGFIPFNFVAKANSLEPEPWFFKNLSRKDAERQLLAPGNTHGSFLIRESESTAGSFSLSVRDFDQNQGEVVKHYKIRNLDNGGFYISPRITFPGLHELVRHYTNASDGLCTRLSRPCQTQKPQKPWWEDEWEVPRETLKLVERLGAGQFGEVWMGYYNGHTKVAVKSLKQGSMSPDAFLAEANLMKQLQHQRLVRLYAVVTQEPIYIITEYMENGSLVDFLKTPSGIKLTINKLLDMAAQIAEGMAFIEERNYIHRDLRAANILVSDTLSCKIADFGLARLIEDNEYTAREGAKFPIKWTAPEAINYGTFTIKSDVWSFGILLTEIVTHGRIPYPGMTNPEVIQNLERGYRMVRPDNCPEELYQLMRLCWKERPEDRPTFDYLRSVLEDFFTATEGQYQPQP
Protocol: as §1, §2, §3, §4

[13] = target: T13, LTK (Homo sapiens, UniProt P29376); conditions: HEK293
T13 construct: purchased Promega (NanoBRET Target Engagement K192 Kinase Selectivity System)
Protocol: as §1, §2, §3, §4

[14] = target: T14, MAST3 (Homo sapiens, UniProt O60307); conditions: HEK293
T14 construct: purchased Promega (NanoBRET Target Engagement K192 Kinase Selectivity System)
Protocol: as §1, §2, §3, §4

[15] = target: T15, MYLK4 (Homo sapiens, UniProt Q86YV6); conditions: HEK293
T15 construct: purchased Promega (NanoBRET Target Engagement K192 Kinase Selectivity System)
Protocol: as §1, §2, §3, §4

[16] = target: T16, NTRK2 (Homo sapiens, UniProt Q16620); conditions: HEK293
T16 construct: purchased Promega (NanoBRET Target Engagement K192 Kinase Selectivity System)
Protocol: as §1, §2, §3, §4

[17] = target: T17, PAK4 (Homo sapiens, UniProt O96013); conditions: HEK293
T17 construct: purchased Promega (NanoBRET Target Engagement K192 Kinase Selectivity System)
T17 sequence (O96013 whole entry): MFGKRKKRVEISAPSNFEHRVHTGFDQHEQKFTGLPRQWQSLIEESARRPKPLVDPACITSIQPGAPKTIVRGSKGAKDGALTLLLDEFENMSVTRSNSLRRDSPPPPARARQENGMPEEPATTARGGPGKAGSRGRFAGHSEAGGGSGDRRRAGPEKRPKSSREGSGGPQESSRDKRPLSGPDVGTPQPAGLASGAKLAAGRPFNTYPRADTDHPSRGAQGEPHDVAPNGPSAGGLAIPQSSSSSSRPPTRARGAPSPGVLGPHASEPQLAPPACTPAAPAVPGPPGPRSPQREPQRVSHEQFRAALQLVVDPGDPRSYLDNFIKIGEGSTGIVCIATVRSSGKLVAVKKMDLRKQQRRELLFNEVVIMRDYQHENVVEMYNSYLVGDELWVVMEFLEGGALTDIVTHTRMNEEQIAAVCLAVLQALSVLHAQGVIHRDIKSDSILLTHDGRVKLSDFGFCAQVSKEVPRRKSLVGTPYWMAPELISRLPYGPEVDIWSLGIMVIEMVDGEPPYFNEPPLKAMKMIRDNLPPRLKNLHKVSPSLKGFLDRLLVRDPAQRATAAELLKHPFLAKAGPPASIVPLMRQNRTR
Protocol: as §1, §2, §3, §4

[18] = target: T18, PKMYT1 (Homo sapiens, UniProt Q99640); conditions: HEK293
T18 construct: purchased Promega (NanoBRET Target Engagement K192 Kinase Selectivity System)
Protocol: as §1, §2, §3, §4

[19] = target: T19, PLK4 (Homo sapiens, UniProt O00444); conditions: HEK293
T19 construct: purchased Promega (NanoBRET Target Engagement K192 Kinase Selectivity System)
Protocol: as §1, §2, §3, §4

[20] = target: T20, PRKACA (Homo sapiens, UniProt P17612); conditions: HEK293
T20 construct: purchased Promega (NanoBRET Target Engagement K192 Kinase Selectivity System)
Protocol: as §1, §2, §3, §4

[21] = target: T21, RET (Homo sapiens, UniProt P07949); conditions: HEK293
T21 construct: purchased Promega (NanoBRET Target Engagement K192 Kinase Selectivity System)
Protocol: as §1, §2, §3, §4

[22] = target: T22, RON (Homo sapiens, UniProt Q04912); conditions: HEK293
T22 construct: purchased Promega (NanoBRET Target Engagement K192 Kinase Selectivity System)
Protocol: as §1, §2, §3, §4

[23] = target: T23, SLK (Homo sapiens, UniProt Q9H2G2); conditions: HEK293
T23 construct: purchased Promega (NanoBRET Target Engagement K192 Kinase Selectivity System)
Protocol: as §1, §2, §3, §4

[24] = target: T24, STK3 (Homo sapiens, UniProt Q13188); conditions: HEK293
T24 construct: purchased Promega (NanoBRET Target Engagement K192 Kinase Selectivity System)
T24 sequence (Q13188 whole entry): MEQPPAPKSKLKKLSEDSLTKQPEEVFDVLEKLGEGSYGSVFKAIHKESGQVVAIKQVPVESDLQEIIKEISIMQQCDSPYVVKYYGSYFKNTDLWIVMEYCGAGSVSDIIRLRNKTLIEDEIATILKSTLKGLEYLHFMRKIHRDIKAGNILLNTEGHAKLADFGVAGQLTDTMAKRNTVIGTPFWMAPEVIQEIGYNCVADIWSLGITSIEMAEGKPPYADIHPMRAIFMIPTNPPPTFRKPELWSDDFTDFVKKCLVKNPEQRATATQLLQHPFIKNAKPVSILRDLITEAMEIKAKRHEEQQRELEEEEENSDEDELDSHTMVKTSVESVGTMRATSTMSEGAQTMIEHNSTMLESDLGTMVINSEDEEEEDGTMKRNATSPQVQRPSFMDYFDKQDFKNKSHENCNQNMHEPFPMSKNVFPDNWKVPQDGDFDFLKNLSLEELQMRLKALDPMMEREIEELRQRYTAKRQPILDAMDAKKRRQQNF
Protocol: as §1, §2, §3, §4

[25] = target: T25, STK35 (Homo sapiens, UniProt Q8TDR2); conditions: HEK293
T25 construct: purchased Promega (NanoBRET Target Engagement K192 Kinase Selectivity System)
T25 sequence (Q8TDR2 whole entry): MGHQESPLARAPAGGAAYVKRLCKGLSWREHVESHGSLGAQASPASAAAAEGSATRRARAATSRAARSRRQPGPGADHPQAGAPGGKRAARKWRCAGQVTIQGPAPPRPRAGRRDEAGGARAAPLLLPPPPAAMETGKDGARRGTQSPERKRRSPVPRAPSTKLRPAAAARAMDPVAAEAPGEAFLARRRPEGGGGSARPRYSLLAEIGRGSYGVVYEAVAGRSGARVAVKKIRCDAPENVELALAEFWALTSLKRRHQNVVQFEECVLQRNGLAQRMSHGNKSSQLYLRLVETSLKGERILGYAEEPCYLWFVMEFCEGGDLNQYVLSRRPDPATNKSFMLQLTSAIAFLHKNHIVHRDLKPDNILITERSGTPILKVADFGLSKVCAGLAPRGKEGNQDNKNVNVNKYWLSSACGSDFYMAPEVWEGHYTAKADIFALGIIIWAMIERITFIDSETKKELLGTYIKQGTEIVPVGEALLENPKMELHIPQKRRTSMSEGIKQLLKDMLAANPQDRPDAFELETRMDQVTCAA
Protocol: as §1, §2, §3, §4

[26] = target: T26, TEK (Homo sapiens, UniProt Q02763); conditions: HEK293
T26 construct: purchased Promega (NanoBRET Target Engagement K192 Kinase Selectivity System)
Protocol: as §1, §2, §3, §4

[27] = target: T27, TLK1 (Homo sapiens, UniProt Q9UKI8); conditions: HEK293
T27 construct: host or cells: HEK293
Protocol: as §1, §2, §3, §4

`CCC(=O)Nc1cc(Nc2cc(NC3CC3)n3ncc(C#N)c3n2)c(F)cc1N1CCC[C@H](NC)C1` [Compound 2, (S)-N-(5-((3-cyano-7-(cyclopropylamino)pyrazolo[1,5-a]pyrimidin-5-yl)amino)-4-fluoro-2-(3-(methylamino)piperidin-1-yl)phenyl)propionamide] gave a receptor occupancy at 10 µM [1] of 9.4%, a receptor occupancy at 10 µM [2] of 7.6% and a receptor occupancy at 10 µM [3] of 25.8%. For the same molecule, the receptor occupancy at 10 µM [4] was 17.5%, the receptor occupancy at 10 µM [5] was 23.4% and the “% occupancy at 10 μM” value ([6]; CLK1, HEK293) was 76%. The receptor occupancy at 10 µM ([6]; HEK293, CLK1) was 76.2%, the “% occupancy at 10 μM” value ([7]; CLK4, HEK293) was 74% and the receptor occupancy at 10 µM ([7]; HEK293, CLK4) was 73.8%. The receptor occupancy at 10 µM [8] was 9.4%, the “% occupancy at 10 μM” value ([9]; DAPK2, HEK293) was 72% and the receptor occupancy at 10 µM ([9]; HEK293, DAPK2) was 72.1%. For the same molecule, the receptor occupancy at 10 µM [10] was 44.7%, the receptor occupancy at 10 µM [11] was 4.7% and the receptor occupancy at 10 µM [12] was 4.9%. It also gave a receptor occupancy at 10 µM [13] of 4.2%, a receptor occupancy at 10 µM [14] of -0.9% and a receptor occupancy at 10 µM [15] of 38.5%. The receptor occupancy at 10 µM [16] was -0.1%, the receptor occupancy at 10 µM [17] was 4.5% and the receptor occupancy at 10 µM [18] was 5.5%. The receptor occupancy at 10 µM [19] was 3.8%, the receptor occupancy at 10 µM [20] was 11.7% and the receptor occupancy at 10 µM [21] was 1.8%. It also gave a receptor occupancy at 10 µM [22] of 7.6%, a receptor occupancy at 10 µM [23] of 6.6% and a receptor occupancy at 10 µM [24] of 5.2%. For the same molecule, the receptor occupancy at 10 µM [25] was 6.5%, the receptor occupancy at 10 µM [26] was 5.2% and the receptor occupancy at 10 µM [27] was -23.1%.
